Measurements published in patent US7683168B2, “Compositions of novel opioid compounds and method of use thereof” (priority 2005, dated 2010).

Tests used:
human mu opioid receptor = molecular target: T1, human mu opioid receptor (Homo sapiens, UniProt P35372); experiment: radioligand binding, human mu opioid receptor, CHO cell membranes; conditions: species not given, read-out: μ
T1 construct: purchased Perkin Elmer, Boston, Mass; 6110535; host or cells: CHO cells

human delta receptor = molecular target: T2, human delta receptor (Homo sapiens, UniProt P41143); experiment: radioligand binding, human delta receptor, HEK-293 cell membranes; conditions: cell not marked (rat), species not given, read-out: δ
T2 construct: purchased Perkin Elmer, Boston, Mass; 6110549; host or cells: HEK-293 cells
T2 sequence (P41143 whole entry): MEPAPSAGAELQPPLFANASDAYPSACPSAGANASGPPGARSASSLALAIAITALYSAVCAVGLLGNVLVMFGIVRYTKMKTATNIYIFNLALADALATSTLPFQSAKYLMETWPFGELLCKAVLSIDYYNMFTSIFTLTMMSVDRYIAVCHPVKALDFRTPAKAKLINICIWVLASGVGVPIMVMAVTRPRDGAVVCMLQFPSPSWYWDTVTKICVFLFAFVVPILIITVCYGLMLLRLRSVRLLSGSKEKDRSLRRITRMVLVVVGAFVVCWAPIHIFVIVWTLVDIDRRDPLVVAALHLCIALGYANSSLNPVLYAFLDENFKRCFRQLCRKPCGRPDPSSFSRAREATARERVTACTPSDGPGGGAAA

mouse vas deferens = experiment: electrically stimulated mouse vas deferens (MVD) ED50; assay type: cell-based; conditions: ED50, inhibition of electrically induced contractions

T1 sequence (P35372 whole entry): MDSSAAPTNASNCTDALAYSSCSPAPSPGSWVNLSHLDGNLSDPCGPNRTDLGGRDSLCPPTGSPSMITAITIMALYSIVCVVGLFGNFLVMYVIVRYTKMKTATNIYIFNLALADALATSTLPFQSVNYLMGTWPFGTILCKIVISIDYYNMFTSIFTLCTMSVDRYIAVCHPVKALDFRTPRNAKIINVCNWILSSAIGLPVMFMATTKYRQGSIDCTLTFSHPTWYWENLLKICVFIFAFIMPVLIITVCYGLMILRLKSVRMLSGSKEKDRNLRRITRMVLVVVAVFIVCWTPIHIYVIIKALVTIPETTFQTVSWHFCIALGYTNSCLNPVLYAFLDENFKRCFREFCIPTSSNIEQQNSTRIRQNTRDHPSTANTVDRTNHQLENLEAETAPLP

Structure (SMILES)	Ki (human mu opioid receptor)	Ki (human delta receptor)	EC50 (mouse vas deferens)
C[C@@H]1CN(C(c2cccc(O)c2)c2cccc(C(=O)N3CCCN(CC(=O)O)CC3)c2)[C@@H](C)CN1Cc1cccc(F)c1 (stereo partly shown)	3.1 nM		
CCOC(=O)CCCN1CCCN(C(=O)c2cccc(C(c3cccc(O)c3)N3C[C@@H](C)N(CC4CC4)C[C@@H]3C)c2)CC1 (stereo partly shown)	3.9 nM	10.3 nM	92.5 nM
C[C@@H]1CN(C(c2cccc(O)c2)c2cccc(C(=O)N3CCCN(CCCC(=O)O)CC3)c2)[C@@H](C)CN1CC1CC1 (stereo partly shown)	26.5 nM	527 nM	60.9 nM
CCOC(=O)CCCCN1CCCN(C(=O)c2cccc(C(c3cccc(O)c3)N3C[C@@H](C)N(CC4CC4)C[C@@H]3C)c2)CC1 (stereo partly shown)	29.9 nM	88.5 nM	116 nM
C[C@@H]1CN(C(c2cccc(O)c2)c2cccc(C(=O)N3CCCN(CCCCC(=O)O)CC3)c2)[C@@H](C)CN1CC1CC1 (stereo partly shown)	558 nM	62.1 nM	77.5 nM
C=CCN1C[C@H](C)N(C(c2cccc(O)c2)c2cccc(C(=O)N3CCCN(CCCCCC(=O)OCC)CC3)c2)C[C@H]1C (stereo partly shown)	21.3 nM	3.2 nM	43.3 nM
CCOC(=O)CCCCCN1CCCN(C(=O)c2cccc(C(c3cccc(O)c3)N3C[C@@H](C)N(Cc4ccccc4)C[C@@H]3C)c2)CC1 (stereo partly shown)	23.4 nM	3.7 nM	29.6 nM
CCOC(=O)CCCCCN1CCCN(C(=O)c2cccc(C(c3cccc(O)c3)N3C[C@@H](C)N(Cc4cccc(F)c4)C[C@@H]3C)c2)CC1 (stereo partly shown)	58.5 nM	12.9 nM	156 nM
C[C@@H]1CN(C(c2cccc(O)c2)c2cccc(C(=O)N3CCCN(CCCCCC(=O)O)CC3)c2)[C@@H](C)CN1Cc1cccc(F)c1 (stereo partly shown)	222 nM	25.1 nM	16.2 nM
CCOC(=O)CCCCCN1CCCN(C(=O)c2cccc(C(c3cccc(O)c3)N3C[C@@H](C)N(CC4CC4)C[C@@H]3C)c2)CC1 (stereo partly shown)	9.3 nM	23.5 nM	1040 nM
C[C@@H]1CN(C(c2cccc(O)c2)c2cccc(C(=O)N3CCCN(CCCCCC(=O)O)CC3)c2)[C@@H](C)CN1CC1CC1 (stereo partly shown)	20.3 nM	5.6 nM	110 nM
C=CCN1C[C@H](C)N(C(c2cccc(O)c2)c2cccc(C(=O)N3CCCN(CCCCCCC(=O)OCC)CC3)c2)C[C@H]1C (stereo partly shown)	3.9 nM	3.1 nM	52.3 nM
C=CCN1C[C@H](C)N(C(c2cccc(O)c2)c2cccc(C(=O)N3CCCN(CCCCCCC(=O)O)CC3)c2)C[C@H]1C (stereo partly shown)	8.3 nM	5.6 nM	34.9 nM
CCOC(=O)CCCCCCN1CCCN(C(=O)c2cccc(C(c3cccc(O)c3)N3C[C@@H](C)N(Cc4ccccc4)C[C@@H]3C)c2)CC1 (stereo partly shown)	3.8 nM	2.4 nM	28.6 nM
C[C@@H]1CN(C(c2cccc(O)c2)c2cccc(C(=O)N3CCCN(CCCCCCC(=O)O)CC3)c2)[C@@H](C)CN1Cc1ccccc1 (stereo partly shown)	6.3 nM	4.9 nM	10.4 nM
CCOC(=O)CCCCCCN1CCCN(C(=O)c2cccc(C(c3cccc(O)c3)N3C[C@@H](C)N(Cc4cccc(F)c4)C[C@@H]3C)c2)CC1 (stereo partly shown)	7 nM	13.3 nM	245 nM
C[C@@H]1CN(C(c2cccc(O)c2)c2cccc(C(=O)N3CCCN(CCCCCCC(=O)O)CC3)c2)[C@@H](C)CN1Cc1cccc(F)c1 (stereo partly shown)	222 nM	141 nM	109 nM
CCOC(=O)CCCCCCN1CCCN(C(=O)c2cccc(C(c3cccc(O)c3)N3C[C@@H](C)N(CC4CC4)C[C@@H]3C)c2)CC1 (stereo partly shown)	8 nM	44.3 nM	88.1 nM

Structure (SMILES)	Ki (human mu opioid receptor)	Ki (human delta receptor)	EC50 (mouse vas deferens)
C[C@@H]1CN(C(c2cccc(O)c2)c2cccc(C(=O)N3CCCN(CCCCCCC(=O)O)CC3)c2)[C@@H](C)CN1CC1CC1 (stereo partly shown)	40.7 nM	50.6 nM	339 nM
C=CCN1C[C@H](C)N(C(c2cccc(O)c2)c2cccc(C(=O)N3CCCN(Cc4cccc(C(=O)OC)c4)CC3)c2)C[C@H]1C (stereo partly shown)			19.6 nM
C=CCN1C[C@H](C)N(C(c2cccc(O)c2)c2cccc(C(=O)N3CCCN(Cc4ccccc4C(=O)OC)CC3)c2)C[C@H]1C (stereo partly shown)			21.8 nM
CCOC(=O)N1CCN(C(=O)c2cccc([C@H](c3cccc(O)c3)N3C[C@@H](C)N(Cc4cccc(F)c4)C[C@@H]3C)c2)CC1 [Example 60, 4-{3-[(R)-[(2S,5R)-4-(3-Fluorobenzyl)-2,5-dimethylpiperazin-1-yl]-(3-hydroxyphenyl)methyl]benzoyl}piperazine-1-carboxylic acid ethyl ester]	9.8 nM	13.1 nM	47.2 nM
CCOC(=O)CN1CCN(C(=O)c2cccc([C@H](c3cccc(O)c3)N3C[C@@H](C)N(Cc4cccc(F)c4)C[C@@H]3C)c2)CC1 [Example 66, (4-{3-[(R)-[(2S,5R)-4-(3-Fluoro-benzyl)-2,5-dimethyl-piperazin-1-yl]-(3-hydroxy-phenyl)-methyl]-benzoyl}-piperazin-1-yl)-acetic acid ethyl ester]	5.05 nM	1.3 nM	22 nM
CCOC(=O)CN1CCN(C(=O)c2cccc([C@H](c3cccc(O)c3)N3C[C@@H](C)N(CC4CC4)C[C@@H]3C)c2)CC1 [Example 70, (4-{3-[(R)-((2S,5R)-4-Cyclopropylmethyl-2,5-dimethyl-piperazin-1-yl)-(3-hydroxy-phenyl)-methyl]-benzoyl}-piperazin-1-yl)-acetic acid ethyl ester]	8.7 nM	3.5 nM	55.4 nM
C[C@@H]1CN([C@@H](c2cccc(O)c2)c2cccc(C(=O)N3CCN(CC(=O)O)CC3)c2)[C@@H](C)CN1CC1CC1 [Example 71]	81.8 nM	6.1 nM	35.9 nM
CCOC(=O)CCCN1CCN(C(=O)c2cccc([C@H](c3cccc(O)c3)N3C[C@@H](C)N(CC4CC4)C[C@@H]3C)c2)CC1 [Example 77, 4-(4-{3-[(R)-((2S,5R)-4-Cyclopropylmethyl-2,5-dimethyl-piperazin-1-yl)-(3-hydroxy-phenyl)-methyl]-benzoyl}-piperazin-1-yl)-butyric acid ethyl ester]	4.4 nM	402 nM	111 nM
CCOC(=O)CCCN1CCN(C(=O)c2cccc([C@H](c3cccc(O)c3)N3C[C@@H](C)N(Cc4cccc(F)c4)C[C@@H]3C)c2)CC1 [Example 81, 4-(4-{3-[(R)-((2S,5R)-4-(3-Fluorobenzyl)-2,5-dimethyl-piperazin-1-yl)-(3-hydroxy-phenyl)-methyl]-benzoyl}-piperazin-1-yl)-butyric acid ethyl ester]	4.9 nM	12.7 nM	44.8 nM
CCOC(=O)CCCCN1CCN(C(=O)c2cccc([C@H](c3cccc(O)c3)N3C[C@@H](C)N(Cc4cccc(F)c4)C[C@@H]3C)c2)CC1 [Example 87, 5-(4-{3-[(R)-((2S,5R)-4-(3-Fluorobenzyl)-2,5-dimethyl-piperazin-1-yl)-(3-hydroxy-phenyl)-methyl]-benzoyl}-piperazin-1-yl)-pentanoic acid ethyl ester]	21.3 nM	10.8 nM	36.2 nM
CCOC(=O)CCCCCN1CCN(C(=O)c2cccc([C@H](c3cccc(O)c3)N3C[C@@H](C)N(CC4CC4)C[C@@H]3C)c2)CC1 [Example 100, 6-(4-{3-[(R)-((2S,5R)-4-Cyclopropylmethyl-2,5-dimethyl-piperazin-1-yl)-(3-hydroxy-phenyl)-methyl]-benzoyl}-piperazin-1-yl)-hexanoic acid ethyl ester]			170 nM
C[C@@H]1CN([C@@H](c2cccc(O)c2)c2cccc(C(=O)N3CCN(CCCCCC(=O)O)CC3)c2)[C@@H](C)CN1CC1CC1 [Example 101, 6-(4-{3-[(R)-((2S,5R)-4-Cyclopropylmethyl-2,5-dimethyl-piperazin-1-yl)-(3-hydroxy-phenyl)-methyl]-benzoyl}-piperazin-1-yl)-hexanoic acid]			75.8 nM
C=CCN1C[C@H](C)N([C@@H](c2cccc(O)c2)c2cccc(C(=O)N3CCN(CCCCCCC(=O)OCC)CC3)c2)C[C@H]1C [Example 108, 7-(4-{3-[(R)-((2S,5R)-4-Allyl-2,5-dimethyl-piperazin-1-yl)-(3-hydroxy-phenyl)-methyl]-benzoyl}-piperazin-1-yl)-heptanoic acid ethyl ester]			31.7 nM
CCOC(=O)CCCCCCN1CCN(C(=O)c2cccc([C@H](c3cccc(O)c3)N3C[C@@H](C)N(Cc4cccc(F)c4)C[C@@H]3C)c2)CC1 [Example 112, 7-(4-{3-[(R)-[(2S,5R)-4-(3-Fluoro-benzyl)-2,5-dimethyl-piperazin-1-yl]-(3-hydroxy-phenyl)-methyl]-benzoyl}-piperazin-1-yl)-heptanoic acid ethyl ester]	5.9 nM		111 nM
CCOC(=O)CCCCCCN1CCN(C(=O)c2cccc([C@H](c3cccc(O)c3)N3C[C@@H](C)N(CC4CC4)C[C@@H]3C)c2)CC1 [Example 114, 7-(4-{3-[(R)-((2S,5R)-4-Cyclopropylmethyl-2,5-dimethyl-piperazin-1-yl)-(3-hydroxy-phenyl)-methyl]-benzoyl}-piperazin-1-yl)-heptanoic acid ethyl ester]			221 nM
C[C@@H]1CN([C@@H](c2cccc(O)c2)c2cccc(C(=O)N3CCN(CCCCCCC(=O)O)CC3)c2)[C@@H](C)CN1CC1CC1 [Example 115, 7-(4-{3-[(R)-((2S,5R)-4-Cyclopropylmethyl-2,5-dimethyl-piperazin-1-yl)-(3-hydroxy-phenyl)-methyl]-benzoyl}-piperazin-1-yl)-heptanoic acid]		22 nM	85.8 nM
C[C@@H]1CN([C@@H](c2cccc(O)c2)c2cccc(C(=O)N3CCN(CC(=O)O)CC3)c2)[C@@H](C)CN1Cc1ccc(F)cc1 [Example 116, (4-{3-[(R)-[(2S,5R)-4-(4-Fluoro-benzyl)-2,5-dimethyl-piperazin-1-yl]-(3-hydroxy-phenyl)-methyl]-benzoyl}-piperazin-1-yl)-acetic acid]		0.83 nM	1.95 nM
